According to patent US11952365B2, “Anti-viral compounds” (Aligos Therapeutics, Inc., priority 2020, dated 2024):
Read-outs that look alike come from different tables or passages of the source.

What was measured:
3CLpro = 3CLpro (Severe acute respiratory syndrome coronavirus 2, UniProt P0DTD1); test: SARS-CoV-2 3CLpro protease assay (duplex, SAMDI-MS); type: biochemical; design: For the duplex assay, 3CLpro and HRV3C was added; conditions: 3CLpro, 30 mins preincubation, class symbols; read-out: SARS-Cov-2 IC50
in vitro = conditions: African green monkey, VeroE6 + CP (CC50), Vero E6-eGFP cells with CP-100356, absence of virus, MTS
[1] = system: human beta-coronavirus OC43; test: microbe, parasite or virus in culture; type: cell-based; conditions: Betacoronavirus 1, OC43, HeLa, 144 h, OC43 in HeLa cells, 6 days at 33° C., class symbols; read-out: EC50
[2] = Cytotoxicity plates without OC43 virus (cell-titer-glo); type: cell-based, human; conditions: human; HeLa cells without OC43 virus, class symbols
Procedure: The human beta-coronavirus OC43 was purchased from ATCC (Manassas, VA) and propagated using HCT-8 human colorectal epithelial cells (ATCC). HeLa human cervical epithelial cells (ATCC) were used as susceptible host cell lines and were cultured using EMEM media, supplemented with 10% fetal bovine serum (FBS), 1% (v/v) penicillin/streptomycin (P/S), 1% (v/v) HEPES and 1% (v/v) Cellgro Glutagro™ supplement (all Corning, Manassas, VA) at 37° C. For the OC43 antiviral assay, 1.5×10^4 HeLa cells per well were plated in 100 μL complete media in white 96-well plates with clear bottoms at 37° C. for up to 24 h to facilitate attachment and allow cells to recover from seeding stresses. Next day, the cell culture medium was removed. Serially diluted compounds in 100 μL assay media (EMEM, 2% FBS, 1% P/S, 1% Cellgro Glutagro™ supplement, 1% HEPES) were added to the cells and incubated for 4H at 37° C. in a humidified 5% CO2 incubator. 100 μL of OC43 virus stock was diluted to a concentration known to produce optimal cytopathic effect, inducing 80-90% reduction in cell viability. 96-well plates were incubated for 6 (HeLa) days at 33° C.; each plate contains uninfected control wells as well as virus-infected wells that were not treated with compound. Cytotoxicity plates without the addition of OC43 virus were carried out in parallel. At the end of the incubation period, 100 μL cell culture supernatant was replaced with 100 μL cell-titer-glo reagent (Promega, Madison, WI) and incubated for at least 10 min at rt prior to measuring luminescence. Luminescence was measured on a Perkin Elmer (Waltham, MA) Envision plate reader. Antiviral % inhibition was calculated as follows: [(Compound treated cells infected sample)−(no compound infected control)]/[(Uninfected control)−(no compound infected control)]*100; Using GraphPad (San Diego, CA) prism software version 8.3.1, the antiviral dose-response plot was generated as a sigmoidal fit, log(inhibitor) vs response-variable slope (four parameters) model and the EC50 was calculated which is the predicted compound concentration corresponding to a 50% inhibition of the viral cytopathic effect.

HRV3C = HRV3C (Human rhinovirus 14, UniProt P03303); test: HRV3C protease assay (duplex, SAMDI-MS); type: biochemical, HRV; conditions: 30 mins preincubation, class symbols
Chain of HRV3C (P03303 1538-1719): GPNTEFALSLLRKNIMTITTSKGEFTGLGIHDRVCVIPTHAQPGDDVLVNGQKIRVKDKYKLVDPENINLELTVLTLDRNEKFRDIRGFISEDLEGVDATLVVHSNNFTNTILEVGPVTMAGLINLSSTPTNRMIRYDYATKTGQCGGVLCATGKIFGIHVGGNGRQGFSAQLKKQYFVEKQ
Procedure: Protease assays were performed in 384-well low volume polypropylene microtiter plates at ambient temperature. For the duplex assay, 3CLpro and HRV3C was added using a Multidrop Combi (Thermo Scientific; Waltham, MA) and preincubated for 30 mins with small molecules. The reactions were initiated by the addition of the two peptide substrates. The reactions were incubated for 30 mins and quenched by the addition of 0.5% formic acid (final) with subsequent neutralization using 1% sodium bicarbonate (final). Internal standard peptides were added in 20 mM Hepes pH 8.0 for quantitation of the protease products. For SAMDI-MS analysis, 2 μL of each reaction mixture was transferred using a 384-channel automated liquid handler to SAMDI biochip arrays functionalized with a neutravidin-presenting self-assembled monolayer. The SAMDI arrays were incubated for 1 h in a humidified chamber to allow the specific immobilization of the biotinylated peptide substrates, cleaved products and internal standards. The samples were purified by washing the SAMDI arrays with deionized ultrafiltered water and dried with compressed air. A matrix comprising alpha-cyano cinnamic acid in 80% acetonitrile:20% aqueous ammonium citrate was applied in an automated format by dispensing 50 nL to each spot in the array. SAMDI-MS was performed using reflector-positive mode on an AB Sciex TOF-TOF 5800 System (AB Sciex, Framingham, MA) with 400 shots/spot analyzed in a random raster sampling. For data analysis, area under the curves (peaks) (AUCs) for the product and internal standard were calculated using the TOF/TOF Series Explorer (AB Sciex), and the amount of product formed was calculated using the equation (AUC product/AUC internal standard). The amount of product generated was calculated using the ratio of product area under the curve (AUC) divided by the AUC of the internal standard. Negative controls were pre-quenched with 0.5% formic acid final. Assay robustness was determined by Z-Factor. The IC50s were determined by fitting the curves using a four-parameter equation in Graphpad Prism 8.

[3] = system: SARS-CoV-2-GHB-03021/2020; test: microbe, parasite or virus in culture; type: cell-based; conditions: Severe acute respiratory syndrome coronavirus 2, Vero C1008, 96 h; read-out: VeroE6 + CP (EC50)
human cathepsin L = target: T1, human cathepsin L (Homo sapiens, UniProt P07711); test: cathepsin L assay; type: biochemical; conditions: 10 pM human cathepsin L, Z-FR-AMC 2 μM, class symbols
T1 construct: purchased R&D Systems
T1 sequence (P07711 114-333): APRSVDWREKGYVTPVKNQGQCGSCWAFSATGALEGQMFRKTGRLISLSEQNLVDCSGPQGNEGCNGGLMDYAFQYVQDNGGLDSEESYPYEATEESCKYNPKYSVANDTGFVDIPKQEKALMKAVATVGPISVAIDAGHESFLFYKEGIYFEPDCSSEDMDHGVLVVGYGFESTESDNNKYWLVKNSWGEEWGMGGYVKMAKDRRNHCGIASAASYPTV
Procedure: For the cathepsin L assay, 10 pM of human cathepsin L (R&D Systems; Minneapolis, MN) was preincubated for 30 mins with test compounds. Reactions were initiated by the addition of a peptide substrate Z-FR-AMC (final concentration 2 μM, Anaspec; Fremont, CA). Fluorescence was measured at 2-minute intervals for 30 mins using a 355/460 excitation/emission filter module on an Envision plate reader (Perkin Elmer; Waltham, MA). The IC50 values were calculated for each assay by fitting the curves using a four-parameter equation in GraphPad Prism.

In the case of `O=C(NCc1ccccc1)C(=O)C(C[C@@H]1CCNC1=O)NC(=O)[C@@H]1CCCCN1C(=O)c1cc2ccccc2[nH]1` (stereo partly drawn) [Compound 1, (2S)—N-(4-(benzylamino)-3,4-dioxo-1-((S)-2-oxopyrrolidin-3-yl)butan-2-yl)-1-(1H-indole-2-carbonyl)piperidine-2-carboxamide], the IC50 (3CLpro) is reported as 2 to 20 µM, the CC50 (in vitro; numeric bounds) is reported as over 100 µM and the EC50 [1] is reported as 1 to 10 µM. It also gave a CC50 at 6 days [2] of over 10 µM, an IC50 (HRV3C; HRV IC50, HRV3C) of 20 to 100 µM and an EC50 [3] of over 100 µM.
Work on `O=C(NCc1ccccc1)C(=O)C(C[C@@H]1CCNC1=O)NC(=O)[C@@H]1[C@H]2CCC[C@H]2CN1C(=O)c1cc2ccccc2[nH]1` (stereo partly drawn) [Compound 2, (1S,3aR,6aS)—N-(4-(benzylamino)-3,4-dioxo-1-((S)-2-oxopyrrolidin-3-yl)butan-2-yl)-2-(1H-indole-2-carbonyl)-octahydrocyclopenta[c]pyrrole-1-carboxamide] yielded an IC50 (3CLpro) of 0.2 to 2 µM, a CC50 (in vitro; class symbols) of over 10 µM and an EC50 [1] of 0.1 to 1 µM. The CC50 at 6 days [2] was over 10 µM, the IC50 (HRV3C; HRV3C, read-out: HRV IC50) was 2 to 20 µM and the IC50 (human cathepsin L) was 1 to 10 µM. It also gave an EC50 [3] of 1 to 10 µM.
In the case of `CC1(C)[C@@H]2[C@@H](C(=O)NC(C[C@@H]3CCNC3=O)C(=O)C(=O)NCc3ccccc3)N(C(=O)c3cc4ccccc4[nH]3)C[C@@H]21` (stereo partly drawn) [Compound 4, N-benzyl-3-[[(1R,2S,5S)-3-(1H-indole-2-carbonyl)-6,6-dimethyl-3-azabicyclo[3.1.0]hexan-2-yl]formamido]-2-oxo-4-[(3S)-2-oxopyrrolidin-3-yl]butanamide], the IC50 (3CLpro) is reported as 0.2 to 2 µM, the CC50 (in vitro; numeric bounds) is reported as over 100 µM and the EC50 [1] is reported as 1 to 10 µM. It also gave a CC50 at 6 days [2] of over 10 µM, an IC50 (HRV3C; HRV3C, read-out: HRV IC50) of 2 to 20 µM and an IC50 (human cathepsin L) of 0.1 to 1 µM. For the same compound, the EC50 [3] was 1 to 10 µM.
Compound `O=C(NCc1ccccc1)C(=O)C(C[C@@H]1CCNC1=O)NC(=O)[C@@H]1C[C@@H](Oc2ccccc2)CN1C(=O)c1cc2ccccc2[nH]1` (some centres unmarked) [Compound 5] has an IC50 (3CLpro) of 20 to 100 µM, a CC50 (in vitro; numeric bounds) of over 100 µM and an EC50 [1] of 1 to 10 µM. It also gave a CC50 at 6 days [2] of over 10 µM, an IC50 (HRV3C; HRV IC50, HRV3C) of 0.2 to 2 µM and an EC50 [3] of 10 to 100 µM.
Work on `O=C(NCc1ccccc1)C(=O)C(C[C@@H]1CCNC1=O)NC(=O)[C@@H]1C[C@@H](OCc2ccccc2)CN1C(=O)c1cc2ccccc2[nH]1` (some centres unmarked) [Compound 6] yielded an IC50 (3CLpro) of 2 to 20 µM, a CC50 (in vitro; numeric bounds) of over 100 µM and an EC50 [1] of 1 to 10 µM. It also gave a CC50 at 6 days [2] of over 10 µM, an IC50 (HRV3C; HRV IC50, HRV3C) of 0.2 to 2 µM and an EC50 [3] of over 100 µM.
With `O=C(NCc1ccccc1)C(=O)C(C[C@@H]1CCNC1=O)NC(=O)[C@@H]1[C@H]2CC[C@H](C2)N1C(=O)c1cc2ccccc2[nH]1` (some centres unmarked) [Compound 8] the IC50 (3CLpro) was 0.2 to 2 µM, the CC50 (in vitro; numeric bounds) was over 100 µM and the EC50 [1] was 1 to 10 µM. It also gave a CC50 at 6 days [2] of over 10 µM, an IC50 (HRV3C; HRV3C, read-out: HRV IC50) of 2 to 20 µM and an IC50 (human cathepsin L) of 0.1 to 1 µM. It also gave an EC50 [3] of 10 to 100 µM.
Compound `O=C(NCc1ccccc1)C(=O)C(C[C@@H]1CCNC1=O)NC(=O)[C@@H]1CC2(CC2)CN1C(=O)c1cc2ccccc2[nH]1` (some centres unmarked) [Compound 9] has an IC50 (3CLpro) of 0.02 to 0.2 µM, a CC50 (in vitro; numeric bounds) of over 100 µM and an EC50 [1] of 0.1 to 1 µM. The CC50 at 6 days [2] was over 10 µM, the IC50 (HRV3C; HRV3C, read-out: HRV IC50) was 2 to 20 µM and the IC50 (human cathepsin L) was 0.1 to 1 µM. The EC50 [3] was 1 to 10 µM.
`CC(C)(C)O[C@@H]1C[C@@H](C(=O)NC(C[C@@H]2CCNC2=O)C(=O)C(=O)NCc2ccccc2)N(C(=O)c2cc3ccccc3[nH]2)C1` (some centres unmarked) [Compound 10] showed an IC50 (3CLpro) of 2 to 20 µM, a CC50 (in vitro; numeric bounds) of over 100 µM and an EC50 [1] of 1 to 10 µM. It also gave a CC50 at 6 days [2] of over 10 µM, an IC50 (HRV3C; HRV IC50, HRV3C) of 0.2 to 2 µM and an EC50 [3] of over 100 µM.
Compound `CC1(C)C[C@@H](C(=O)NC(C[C@@H]2CCNC2=O)C(=O)C(=O)NCc2ccccc2)N(C(=O)c2cc3ccccc3[nH]2)C1` (some centres unmarked) [Compound 11] has an IC50 (3CLpro) of 0.2 to 2 µM, a CC50 (in vitro; numeric bounds) of over 100 µM and an EC50 [1] of 1 to 10 µM. For the same compound, the CC50 at 6 days [2] was over 10 µM, the IC50 (HRV3C; HRV3C, read-out: HRV IC50) was 2 to 20 µM and the IC50 (human cathepsin L) was under 0.1 µM. For the same compound, the EC50 [3] was 10 to 100 µM.
With `CO[C@@H]1C[C@@H](C(=O)NC(C[C@@H]2CCNC2=O)C(=O)C(=O)NCc2ccccc2)N(C(=O)c2cc3ccccc3[nH]2)C1` (some centres unmarked) [Compound 12] the IC50 (3CLpro) was 2 to 20 µM, the CC50 (in vitro; numeric bounds) was over 100 µM and the EC50 [1] was 10 to 100 µM. It also gave a CC50 at 6 days [2] of over 10 µM, an IC50 (HRV3C; HRV IC50, HRV3C) of 20 to 100 µM and an EC50 [3] of over 100 µM.
